Reference: patent US8198507B2, “Transgenic or recombinant non-human mammals and their uses in screening psychoactive medicines” (Institut National de la Sante Et de la Recherche Medicale - …, priority 2000, dated 2012)

What was measured:
STOP KO (−/−) mice [1] = settings: STOP KO (−/−) mothers, short-term treatment (6 to 8 days before birth), 0.5 mg/kg/day in the drinking water, first day post-partum
Protocol: Post-partum females (second gestation) were reared individually from the beginning of their gestation. On the day of giving birth, the young mice were removed and kept in the warm for one hour. The mother was then removed from her usual cage and three newborns were each placed in a corner of this same cage, at a distance from the nest. Next, the mother was returned to her nest and the number of young mice reinstalled in the nest, over a period of 20 minutes, was evaluated.
The effect of anxiolytics (diazepam) and of neuro-leptics (chlorpromazine, haloperidol or clozapine) on the behavioral disorders of the STOP KO (−/−) mice was evaluated in the maternal behavior test as defined in example 3 (“reinstallation in the nest” test).
(§1) Haloperidol (Haldol^R, JANSSEN-CILAG), chlorpromazine (Largactil^R, RHONE-POULENC) and diazepam (Valium^R, ROCHE) were administered to the mice in the drinking water, at a dose of 0.5 mg/kg/day.
The effect of short-term administration (for 6 to 8 days from the 6th day preceding the birth) of anxiolytics (diazepam) and of neuroleptics (chlorpromazine, haloperidol or clozapine) on the behavioral disorders of the STOP KO (−/−) mice was evaluated in the “reinstallation in the nest” test.

STOP KO (−/−) mice [2] = test: Survival of the newborns of treated STOP KO (−/−) mothers; type: in vivo; settings: short-term treatment (6 to 8 days before birth), 0.5 mg/kg/day
Protocol: The survival of the newborns is analyzed among the STOP KO (−/−) mice subjected to various treatments. The newborns are considered to be survivors when they are raised until weaning.
as §1

CN1C(=O)CN=C(c2ccccc2)c2cc(Cl)ccc21 [diazepam]
reinstallation of the young mice in the nest (STOP KO (−/−) mice [1]): slightly improved | survival of the young mice (STOP KO (−/−) mice [2]): no survival
